# Measurements from patent US8841233B2, “Herbicidal compositions comprising 4-amino-3-chloro-5-fluoro-6-(4-chloro-2-fluoro-3-methoxyphenyl) pyridine-2-carboxylic acid or a derivative thereof and 4-hydroxyphenyl-pyruvate dioxygenase (HPPD) inhibitors” (Dow Agrosciences LLC, priority 2012, dated 2014).
# What was measured:
# ECHCO = assay: Post-emergence foliar-applied weed control, greenhouse (Example I); assay type: in vivo, Echinochloa colona (L.) Link
# From the text: (§1) Evaluation of Post-emergence Foliar-Applied Herbicidal Mixtures for Weed Control in Direct Seeded Rice
# (§2) Seeds or nutlets of the desired test plant species were planted in a soil matrix prepared by mixing a loam or sandy loam soil (e.g., 28.6 percent silt, 18.8 percent clay, and 52.6 percent sand, with a pH of about 5.8 and an organic matter content of about 1.8 percent) and calcareous grit in an 80 to 20 ratio. The soil matrix was contained in plastic pots with a volume of 1 quart and a surface area of 83.6 square centimeters (cm^2). When required to ensure good germination and healthy plants, a fungicide treatment and/or other chemical or physical treatment was applied. The plants were grown for 8-22 days in a greenhouse with an approximate 14 h photoperiod which was maintained at about 29° C. during the day and 26° C. during the night. Nutrients (Peters Excel® 15-5-15 5-Ca 2-Mg and iron chelate) were applied in the irrigation solution as needed and water was added on a regular basis. Supplemental lighting was provided with overhead metal halide 1000-Watt lamps as necessary. The plants were employed for testing when they reached the first through fourth true leaf stage.
# (§3) Treatments consisted of the acid or esters of 4-amino-3-chloro-5-fluoro-6-(4-chloro-2-fluoro-3-methoxy-phenyl)pyridine-2-carboxylic acid (Compound A), each formulated as an SC (suspension concentrate), and various herbicidal components alone and in combination. Forms of Compound A were applied on an acid equivalent basis.
# (§4) Other herbicidal components were applied on an active ingredient basis and included 4-hydroxyphenyl pyruvate dioxygenase (HPPD)-inhibiting herbicides mesotrione formulated as Callisto®, sulcotrione formulated as Mikado®, pyrazolynate formulated as Sunbird® 10% GR, and benzobicyclon formulated as Benzobicyclon 3.5%.
# (§5) Treatment requirements were calculated based upon the rates being tested, the concentration of active ingredient or acid equivalent in the formulation, and a 12 mL application volume at a rate of 187 L/ha.
# (§6) For treatments comprised of formulated compounds, measured amounts of compounds were placed individually in 25 mL glass vials and diluted in a volume of 1.25% (v/v) Agri-Dex® crop oil concentrated to obtain 12× stock solutions. […] Application solutions were prepared by adding an appropriate amount of each stock solution (e.g., 1 mL) and diluted to the appropriate final concentrations with the addition of 10 mL of an aqueous mixture of 1.25% (v/v) crop oil concentrate so that the final spray solutions contained 1.25+/−0.05% (v/v) crop oil concentrate.
# (§7) For treatments comprised of formulated and technical compounds, weighed amounts of the technical materials were placed individually in 25 mL glass vials and dissolved in a volume of 97:3 v/v acetone/DMSO to obtain 12× stock solutions, and measured amounts of the formulated compounds were placed individually in 25 mL glass vials and diluted in a volume of 1.5% (v/v) crop oil concentrate or water to obtain 12× stock solutions. […] Application solutions were prepared by adding an appropriate amount of each stock solution (e.g., 1 mL) and diluted to the appropriate final concentrations with the addition of an appropriate amount of an aqueous mixture of 1.5% (v/v) crop oil concentrate so that the final spray solutions contained 1.25% (v/v) crop oil concentrate. As required, additional water and/or 97:3 v/v acetone/DMSO was added to individual application solutions so that the final acetone and DMSO concentrations of the application solutions being compared were 8.1% and 0.25%, respectively.
# (§8) All stock solutions and applications solutions were visually inspected for compound compatibility prior to application. Spray solutions were applied to the plant material with an overhead Mandel track sprayer equipped with a 8002E nozzles calibrated to deliver 187 L/ha over an application area of 0.503 m^2 at a spray height of 18 to 20 inches (46 to 50 cm) above average plant canopy height. […]
# DIGSA = assay: as above; assay type: in vivo, Digitaria sanguinalis (L.) Scop.
# From the text: as §1, §2, §3, §4, §5, §6, §7, §8
Structure (SMILES),Visual Weed Control (%) - 20 DAA ECHCO Obs (ECHCO; 4.38 gae/ha),Visual Weed Control (%) - 22 DAA ECHCO Obs (ECHCO; 5.3 gae/ha),Visual Weed Control (%) - 20 DAA ECHCO Obs (ECHCO; 8.75 gae/ha),Visual Weed Control (%) - 22 DAA ECHCO Obs (ECHCO; 10.6 gae/ha),Visual Weed Control (%) - 20 DAA ECHCO Obs (ECHCO; 17.5 gae/ha),Visual Weed Control (%) - 20 DAA DIGSA Obs (DIGSA; 4.38 gae/ha),Visual Weed Control (%) - 20 DAA DIGSA Obs (DIGSA; 8.75 gae/ha),Visual Weed Control (%) - 20 DAA DIGSA Obs (DIGSA; 17.5 gae/ha),Visual Weed Control (%) - 22 DAA ECHCO Obs (ECHCO; 4.38 gae/ha),Visual Weed Control (%) - 22 DAA ECHCO Obs (ECHCO; 8.75 gae/ha),Visual Weed Control (%) - 20 DAA DIGSA Obs (DIGSA; 35 gae/ha)
"COc1c(Cl)ccc(-c2nc(C(=O)O)c(Cl)c(N)c2F)c1F [Compound A Acid, 4-amino-3-chloro-6-(4-chloro-2-fluoro-3-methoxyphenyl)-5-fluoropyridine-2-carboxylic acid]",40%,65%,60%,65%,85%,40%,45%,45%,–,–,–
"COc1c(Cl)ccc(-c2nc(C(=O)OCc3ccccc3)c(Cl)c(N)c2F)c1F [Compound A Benzyl Ester, benzyl ester of 4-amino-3-chloro-5-fluoro-6-(4-chloro-2-fluoro-3-methoxy-phenyl)pyridine-2-carboxylic acid]",40%,–,–,–,–,25%,40%,50%,30%,55%,38%
